Reference: patent US20240398771A1, “TREATMENT OF SCLERODERMA AND RAYNAUD'S SYNDROME” (Aisa Pharma, Inc., priority 2023, published 2024)

Key:
Assay type in all cases: in vivo, human
[1] = system: participants with SSc-RP; test: SHAQ Visual Analog Scale - overall disease severity; set-up: Overall Change in Severity, Baseline, Mean / Overall Change in Severity, Baseline, Median / Overall Change in Severity, Change from Baseline, Mean / Overall Change in Severity, Change from Baseline, Median: scale not given here
Procedure: (§1) Results: Patients in the study were administered the Scleroderma Health Assessment Questionnaire (SHAQ) at the time of study entry and during clinic visits following the treatment period. The study is a two-part, parallel arm design, prospective, double-blind, randomized study conducted in Australia (Flinders Medical Center). 27 patients were randomized into the first phase of the study, following which a DSMB meeting was held, which reviewed data on the primary study endpoint and key Raynaud's secondary endpoints. Data on the SHAQ was not available for the DSMB to review. The mITT population, in which any data was available post treatment was 24 patients was the analysis population for this first part of the study. The second part (i.e., part B) of the study will randomize 36 patients in a double blind, randomized, prospective, placebo controlled, crossover study. In the first part (i.e., Part A) of the study for which data is presented, patients were randomized into 6 groups, cilnidipine at two doses (10 and 20 mg) alone and in combination with tadalafil 5 mg, tadalafil 5 mg alone, and placebo. […] The DSMB recommended that the study proceed into its double blind prospective cross overpowered second phase and compare cilnidipine 20 mg alone to placebo. […] Cilnidipine treatment may reduce patient-reported SSc disease disability compared to placebo • b. Cilnidipine treatment may reduce patient-reported SSc disease alternative disability compared to placebo • c. Cilnidipine treatment may reduce patient-reported SSc disease pain* compared to placebo • d. Cilnidipine treatment may reduce patient-reported SSc disease severity compared to placebo • e. Cilnidipine treatment may reduce patient-reported SSc disease skin ulcer severity rating compared to placebo • f Cilnidipine treatment may reduce patient-reported SSc disease breathing difficulty compared to placebo • g. […] SSc disease pain comprises not only pain from Raynaud's but joint pain, headache, odynophagia, back pain, pain from skin ulceration, and neuropathic pain). Table E includes results of the Scleroderma Health Assessment Questionnaire.

[2] = system: participants with SSc-RP; test: SHAQ Visual Analog Scale - Pain
Procedure: as §1
Pain on the SHAQ outcome measure on the first line in table F is a composite of all pain experienced in patients with SSc, comprising joint pain, back pain, headache, odynophagia, skin ulcer related discomfort, Raynaud's, and neuropathic pain. Aisa Pharma believes, based on the biologic attributes and actions of cilnidipine that differ from most dihydropyridine calcium channel antagonists that cilnidipine might have direct analgesic effects in certain pain conditions and in fact has been designated to receive evaluation through the NIH-NINDS Preclinical Pain Screening Platform Program to investigate the drug in multiple in vitro and in vivo preclinical models of pain that are validated and predictive of effects in man.

[3] = system: participants with SSc-RP; test: SHAQ Visual Analog Scale - Finger Ulcers; set-up: Finger Ulcers, Baseline, Mean / Finger Ulcers, Baseline, Median / Finger Ulcers, Change from Baseline, Mean / Finger Ulcers, Change from Baseline, Median: scale not given here
Procedure: as §1

[4] = system: participants with SSc-RP; test: SHAQ Visual Analog Scale - Breathing Problems; set-up: Visual Analog Scale-Breathing Problems, Baseline, Mean / Visual Analog Scale-Breathing Problems, Baseline, Median / Visual Analog Scale-Breathing Problems, In Clinic Visit (Day 12), Mean / Visual Analog Scale-Breathing Problems, In Clinic Visit (Day 12), Median / Visual Analog Scale-Breathing Problems, Change from Baseline, Mean / Visual Analog Scale-Breathing Problems, Change from Baseline, Median: scale not given here; settings: for % improvement in Breathing (median): mITT
Procedure: as §1

[5] = Cilnidipine 10 mg, Modified ITT, Part A
[6] = Cilnidipine 20 mg, Modified ITT, Part A
[7] = Pooled Cilnidipine (10 mg or 20 mg, N = 7), mITT Part A
[8] = Tadalafil 5 mg, Modified ITT, Part A

## COCCOC(=O)C1=C(C)NC(C)=C(C(=O)OC/C=C/c2ccccc2)C1c1cccc([N+](=O)[O-])c1 (stereo not drawn) [Cilnidipine, 1,4-dihydro-2,6-dimethyl,4-(3-nitrophenyl)-3,5-pyridinedicarboxylic acid 2-methoxyethyl (2 E)-3-phenyl-2-propenyl ester]
[1]; [5]
  Overall Change in Severity, Baseline, Median: 1.900
  Overall Change in Severity, Change from Baseline, Mean: −0.900
  Overall Change in Severity, Change from Baseline, Median: −0.950
[1]; [6]
  Overall Change in Severity, Baseline, Median: 2.900
  Overall Change in Severity, Change from Baseline, Median: −1.600
  Overall Change in Severity, In Clinic Visit (Day 12), Median: 1.200
  Overall Change in Severity, Percent Change from Baseline, Median: −60.00%
[1]; Example 4, SHAQ, mITT Part A
  patient-reported SSc disease severity compared to placebo: may reduce
[1]; [7]
  SHAQ patient reported disease severity: Baseline, Mean (SD): 2.700 (2.3424)
  SHAQ patient reported disease severity: Baseline, Median: 2.900
[2]; Cilnidipine 20 mg (n = 3), footnote *
  VAS- PAIN, Baseline on a 0-10 VAS: *Baseline was 2.17 on a 0-10 VAS
[2]; [6]
  Visual Analog Scale-Pain, Baseline, Median: 1.500
[2]; Example 4, SHAQ, mITT Part A
  patient-reported SSc disease pain compared to placebo: may reduce
[3]; [5]
  Finger Ulcers, Baseline, Mean: 0.700
  Finger Ulcers, Baseline, Median: 0.500
  Finger Ulcers, Change from Baseline, Median: −0.350
  Finger Ulcers, In Clinic Visit (Day 12), Median: 0.000
[3]; [6]
  Finger Ulcers, Baseline, Mean: 1.800
  Finger Ulcers, Baseline, Median: 0.300
  Finger Ulcers, Change from Baseline, Median: 0.000
  Finger Ulcers, In Clinic Visit (Day 12), Median: 0.700
[3]; Example 4, SHAQ, mITT Part A
  patient-reported SSc disease skin ulcer severity rating compared to placebo: may reduce
[4]; [5]
  Visual Analog Scale-Breathing Problems, Baseline, Median: 0.000
[4]; Cilnidipine 20 mg (n = 3), SHAQ
  % improvement in Breathing (median): 67% (median)
[4]; Cilnidipine 20 mg (n = 3), last footnote
  VAS - Breathing problems, Baseline on a 0-10 VAS: **Baseline was 1.13 on a 0-10 VAS
[4]; [6]
  Visual Analog Scale-Breathing Problems, Baseline, Median: 1.200
[4]; Example 4, SHAQ, mITT Part A
  patient-reported SSc disease breathing difficulty compared to placebo: may reduce
[4]; Pooled Cilnidipine (n = 7), SHAQ
  % improvement in Breathing (median): 41% (median)

## CN1CC(=O)N2[C@H](c3ccc4c(c3)OCO4)c3[nH]c4ccccc4c3C[C@@H]2C1=O [Tadalafil]
[1]; [8]
  Overall Change in Severity, Baseline, Mean: 3.600
  Overall Change in Severity, Baseline, Median: 2.550
  Overall Change in Severity, Change from Baseline, Mean: −0.850
  Overall Change in Severity, Change from Baseline, Median: −0.650
  Overall Change in Severity, In Clinic Visit (Day 12), Mean: 2.750
  Overall Change in Severity, In Clinic Visit (Day 12), Median: 1.500
  Overall Change in Severity, Percent Change from Baseline, Mean: −31.76%
  Overall Change in Severity, Percent Change from Baseline, Median: −36.22%
[2]; [8]
  Visual Analog Scale-Pain, Baseline, Mean: 3.167
  Visual Analog Scale-Pain, Baseline, Median: 2.900
  Visual Analog Scale-Pain, Change from Baseline, Mean: −0.300
  Visual Analog Scale-Pain, Change from Baseline, Median: −0.100
  Visual Analog Scale-Pain, In Clinic Visit (Day 12), Mean: 2.700
  Visual Analog Scale-Pain, In Clinic Visit (Day 12), Median: 2.150
  Visual Analog Scale-Pain, Percent Change from Baseline, Mean: −14.24%
  Visual Analog Scale-Pain, Percent Change from Baseline, Median: −4.55%
[3]; [8]
  Finger Ulcers, Baseline, Mean: 2.125
  Finger Ulcers, Baseline, Median: 0.050
  Finger Ulcers, Change from Baseline, Mean: −0.967
  Finger Ulcers, Change from Baseline, Median: −0.100
  Finger Ulcers, In Clinic Visit (Day 12), Mean: 1.867
  Finger Ulcers, In Clinic Visit (Day 12), Median: 0.000
  Finger Ulcers, Percent Change from Baseline, Mean: −66.67%
  Finger Ulcers, Percent Change from Baseline, Median: −66.67%
[4]; [8]
  Visual Analog Scale-Breathing Problems, Baseline, Mean: 1.025
  Visual Analog Scale-Breathing Problems, Baseline, Median: 0.450
  Visual Analog Scale-Breathing Problems, Change from Baseline, Mean: 0.925
  Visual Analog Scale-Breathing Problems, Change from Baseline, Median: 0.300
  Visual Analog Scale-Breathing Problems, In Clinic Visit (Day 12), Mean: 1.950
  Visual Analog Scale-Breathing Problems, In Clinic Visit (Day 12), Median: 0.450
  Visual Analog Scale-Breathing Problems, Percent Change from Baseline, Mean: 213.54%
  Visual Analog Scale-Breathing Problems, Percent Change from Baseline, Median: 115.63%
